Assay results as given in publication PMC8222254, “Self-assembly of an anion receptor with metal-dependent kinase inhibition and potent in vitro anti-cancer properties” (Nature Communications, 2021).
Where “and” joins values, the source holds several entries; their conditions need not be identical. Identical values can stand only once. Like-named read-outs stand apart in the source and are kept apart here.

What was measured:
Experiment in all cases: Chemosensitivity, 96 h continuous exposure, MTT assay
Type in all cases: cell-based, human
MCF10A non-cancer cells = settings: for Relative potency (+ anion to no anion), Ratio + anion:no anion: ratio of IC50, MCF10A
In short: (§1)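 Cells seeded at 2 × 10^3/well (GBM1 3 × 10^3/well) and left overnight at 37 °C, then exposed continuously for 96 h to a range of compound concentrations (final DMSO 0.2%). Viability read by MTT, absorbance at 540 nm; IC50 taken from dose-response curves as concentration reducing cell growth by 50%.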

H460 = settings: for IC50 / Selectivity indices relative to ARPE-19, Ratio + anion:no anion / Selectivity indices relative to MCF10A, Ratio + anion:no anion: H460; for Selectivity index (ARPE19): IC50 ARPE-19 / IC50 H460; for Selectivity index (MCF10A): IC50 MCF10A / IC50 H460; for Relative potency (+ anion to no anion), Ratio + anion:no anion: ratio of IC50, H460; for Selectivity indices relative to ARPE-19, Ratio + anion:no anion: ratio of SI (ARPE-19); for Selectivity indices relative to MCF10A, Ratio + anion:no anion: ratio of SI (MCF 10A)
In short: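 Growth inhibition is measured by MTT after cells are dosed for 96 h without washout. The 50% growth-reduction concentration is then interpolated from the curves.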

HT-29 = settings: for Selectivity index (ARPE19): IC50 ARPE-19 / IC50 HT29; for Selectivity index (MCF10A): IC50 MCF10A / IC50 HT29; for Relative potency (+ anion to no anion), Ratio + anion:no anion: ratio of IC50, HT29; for Selectivity indices relative to ARPE-19, Ratio + anion:no anion: ratio of SI (ARPE-19); for Selectivity indices relative to MCF10A, Ratio + anion:no anion: ratio of SI (MCF 10A)
In short: as §1

HCT116 p53-/- = settings: for IC50 / Selectivity indices relative to ARPE-19, Ratio + anion:no anion / Selectivity indices relative to MCF10A, Ratio + anion:no anion: HCT116 p53-/-; for Selectivity index (ARPE19): IC50 ARPE-19 / IC50 HCT116 p53-/-; for Selectivity index (MCF10A): IC50 MCF10A / IC50 HCT116 p53-/-; for Relative potency (+ anion to no anion), Ratio + anion:no anion: ratio of IC50, HCT116 p53-/-; for Selectivity indices relative to ARPE-19, Ratio + anion:no anion: ratio of SI (ARPE-19); for Selectivity indices relative to MCF10A, Ratio + anion:no anion: ratio of SI (MCF 10A)
In short: as §1

[1] = MCF10A non-cancer, read-out: Mean IC50 values
[2] = MCF10A, mean of replicates, read-out: Mean IC50
[3] = MCF10A, single replicate, read-out: IC50 values for each replicate
[4] = mean of replicates, read-out: Mean IC50
[5] = single replicate, read-out: IC50 values for each replicate
[6] = HT29, mean of replicates, read-out: Mean IC50
[7] = HT29, read-out: Mean IC50 values
[8] = HT-29, single replicate, read-out: IC50 values for each replicate

| SMILES | IC50 (MCF10A non-cancer cells; [1]) [nM] | IC50 (MCF10A non-cancer cells; [2]) [nM] | IC50 (MCF10A non-cancer cells; [3]) | Relative potency (+ anion to no anion), Ratio + anion:no anion (MCF10A non-cancer cells) | IC50 (H460; [4]) [nM] | IC50 (H460; read-out: Mean IC50 values) [nM] | IC50 (H460; [5]) | Selectivity index (ARPE19) (H460) | Selectivity index (MCF10A) (H460) | Relative potency (+ anion to no anion), Ratio + anion:no anion (H460) | Selectivity indices relative to ARPE-19, Ratio + anion:no anion (H460) | IC50 (HT-29; [6]) [nM] | IC50 (HT-29; [7]) [nM] | IC50 (HT-29; [8]) | Selectivity index (ARPE19) (HT-29) | Selectivity index (MCF10A) (HT-29) | Relative potency (+ anion to no anion), Ratio + anion:no anion (HT-29) | Selectivity indices relative to ARPE-19, Ratio + anion:no anion (HT-29; HT29) | Selectivity indices relative to MCF10A, Ratio + anion:no anion (HT-29; HT29) | IC50 (HCT116 p53-/-; read-out: Mean IC50 values) [nM] | other results |
| --- | --- | --- | --- | --- | --- | --- | --- | --- | --- | --- | --- | --- | --- | --- | --- | --- | --- | --- | --- | --- | --- |
| O=S(=O)([O-])[O-].[Cu+2].[Cu+2].[Cu+2].c1ccc(-c2csc(NCCN(CCNc3nc(-c4ccccn4)cs3)CCNc3nc(-c4ccccn4)cs3)n2)nc1.c1ccc(-c2csc(NCCN(CCNc3nc(-c4ccccn4)cs3)CCNc3nc(-c4ccccn4)cs3)n2)nc1 [[L2Cu3(SO4)]4+] | 49700 | 49700 | 53200 nM and 42900 nM and 45100 nM and 57700 nM | 1.03 | 252 | 252 | 438 nM and 207 nM and 188 nM and 219 nM and 227 nM and 234 nM | 477.42 | 197.35 | 0.91 | 2.504 | 188 | 188 | 88 nM and 240 nM and 182 nM | 639.95 | 264.53 | 0.88 | 2.602 | 1.173 | 78 | Selectivity indices relative to MCF10A, Ratio + anion:no anion (H460): 1.129; IC50 (HCT116 p53-/-; [5]): 78 nM and 77 nM and 79 nM; Selectivity index (ARPE19) (HCT116 p53-/-): 1542.44; Selectivity index (MCF10A) (HCT116 p53-/-): 637.59; Relative potency (+ anion to no anion), Ratio + anion:no anion (HCT116 p53-/-): 0.57; Selectivity indices relative to ARPE-19, Ratio + anion:no anion (HCT116 p53-/-): 4.015; Selectivity indices relative to MCF10A, Ratio + anion:no anion (HCT116 p53-/-): 1.810 |
| O=P(O)(O)Oc1ccccc1.[Zn+2].[Zn+2].[Zn+2].c1ccc(-c2csc(NCCN(CCNc3nc(-c4ccccn4)cs3)CCNc3nc(-c4ccccn4)cs3)n2)nc1.c1ccc(-c2csc(NCCN(CCNc3nc(-c4ccccn4)cs3)CCNc3nc(-c4ccccn4)cs3)n2)nc1 [[L2Zn3(O3POPh)]4+] | 52400 | 52400 | 37900 nM and 56100 nM and 63100 nM | 0.32 | 276 | 276 | 263 nM and 517 nM and 187 nM and 138 nM | 834.24 | 189.68 | 0.77 | 1.910 | 379 | 379 | 733 nM and 271 nM and 247 nM and 265 nM | 607.52 | 138.13 | 2.24 | 0.653 | 0.144 | 85 | IC50 (HCT116 p53-/-; [4]): 85 nM; IC50 (HCT116 p53-/-; [5]): 155 nM and 65 nM and 36 nM; Selectivity index (ARPE19) (HCT116 p53-/-): 2708.82; Selectivity index (MCF10A) (HCT116 p53-/-): 615.92; Relative potency (+ anion to no anion), Ratio + anion:no anion (HCT116 p53-/-): 1.18; Selectivity indices relative to ARPE-19, Ratio + anion:no anion (HCT116 p53-/-): 1.240; Selectivity indices relative to MCF10A, Ratio + anion:no anion (HCT116 p53-/-): 0.274 |
| CC(=O)[O-].CC(=O)[O-].CC(=O)[O-].O=P([O-])([O-])[O-].[Zn+2].[Zn+2].[Zn+2].c1ccc(-c2csc(NCCN(CCNc3nc(-c4ccccn4)cs3)CCNc3nc(-c4ccccn4)cs3)n2)nc1.c1ccc(-c2csc(NCCN(CCNc3nc(-c4ccccn4)cs3)CCNc3nc(-c4ccccn4)cs3)n2)nc1 [[L2Zn3(PO4)]3+] | 14400 | 14400 | 11900 nM and 15000 nM and 16300 nM | 0.09 | 249 | 249 | 241 nM and 263 nM and 265 nM and 226 nM | 525.98 | 57.92 | 0.69 | 1.204 | 214 | 214 | 91 nM and 254 nM and 236 nM and 228 nM and 262 nM | 612.01 | 67.40 | 1.27 | 0.658 | 0.070 | 78 | Selectivity indices relative to MCF10A, Ratio + anion:no anion (H460): 0.129; IC50 (HCT116 p53-/-; [5]): 61 nM and 91 nM and 64 nM; Selectivity index (ARPE19) (HCT116 p53-/-): 1679.10; Selectivity index (MCF10A) (HCT116 p53-/-): 184.91; Relative potency (+ anion to no anion), Ratio + anion:no anion (HCT116 p53-/-): 1.08; Selectivity indices relative to ARPE-19, Ratio + anion:no anion (HCT116 p53-/-): 0.769; Selectivity indices relative to MCF10A, Ratio + anion:no anion (HCT116 p53-/-): 0.082 |
| O=S(=O)(O)O.[Zn+2].[Zn+2].[Zn+2].c1ccc(-c2csc(NCCN(CCNc3nc(-c4ccccn4)cs3)CCNc3nc(-c4ccccn4)cs3)n2)nc1.c1ccc(-c2csc(NCCN(CCNc3nc(-c4ccccn4)cs3)CCNc3nc(-c4ccccn4)cs3)n2)nc1 [[L2Zn3(SO4)]4+] | 15200 | 15200 | 18.5 µM and 11.3 µM (2×) and 19.7 µM | 0.09 | 233 | 233 | 189 nM and 262 nM and 250 nM | 726.48 | 65.36 | 0.65 | 1.663 | 238 | 238 | 70 nM and 166 nM and 210 nM and 243 nM and 499 nM | 711.22 | 63.98 | 1.41 | 0.764 | 0.067 | 61 | Selectivity indices relative to MCF10A, Ratio + anion:no anion (H460): 1.128; IC50 (HCT116 p53-/-; [4]): 61 nM; IC50 (HCT116 p53-/-; [5]): 59 nM and 64 nM and 61 nM; Selectivity index (ARPE19) (HCT116 p53-/-): 2774.92; Selectivity index (MCF10A) (HCT116 p53-/-): 249.64; Relative potency (+ anion to no anion), Ratio + anion:no anion (HCT116 p53-/-): 0.85; Selectivity indices relative to ARPE-19, Ratio + anion:no anion (HCT116 p53-/-): 1.271; Selectivity indices relative to MCF10A, Ratio + anion:no anion (HCT116 p53-/-): 0.111 |
| O=P([O-])([O-])[O-].[Cu+2].[Cu+2].[Cu+2].c1ccc(-c2csc(NCCN(CCNc3nc(-c4ccccn4)cs3)CCNc3nc(-c4ccccn4)cs3)n2)nc1.c1ccc(-c2csc(NCCN(CCNc3nc(-c4ccccn4)cs3)CCNc3nc(-c4ccccn4)cs3)n2)nc1 [[L2Cu3(PO4)]3+] | 49400 | 49400 | 46700 nM and 51000 nM and 59300 nM and 40600 nM | 1.02 | 1410 | 1410 | 592 nM and 533 nM and 1.4 µM and 2.22 µM and 504 nM and 1.98 µM (2×) and 2.1 µM | 115.82 | 34.92 | 5.12 | 0.607 | 326 | 326 | 224 nM and 262 nM and 594 nM and 323 nM and 229 nM | 502.36 | 151.48 | 1.52 | 2.043 | 0.672 | 388 | Selectivity indices relative to MCF10A, Ratio + anion:no anion (H460): 0.200; IC50 (HCT116 p53-/-; [4]): 388 nM; IC50 (HCT116 p53-/-; [5]): 686 nM and 542 nM and 264 nM and 205 nM and 242 nM; Selectivity index (ARPE19) (HCT116 p53-/-): 422.09; Selectivity index (MCF10A) (HCT116 p53-/-): 127.27; Relative potency (+ anion to no anion), Ratio + anion:no anion (HCT116 p53-/-): 2.83; Selectivity indices relative to ARPE-19, Ratio + anion:no anion (HCT116 p53-/-): 1.099; Selectivity indices relative to MCF10A, Ratio + anion:no anion (HCT116 p53-/-): 0.361 |
| O=P([O-])([O-])Oc1ccccc1.[Cu+2].[Cu+2].[Cu+2].c1ccc(-c2csc(NCCN(CCNc3nc(-c4ccccn4)cs3)CCNc3nc(-c4ccccn4)cs3)n2)nc1.c1ccc(-c2csc(NCCN(CCNc3nc(-c4ccccn4)cs3)CCNc3nc(-c4ccccn4)cs3)n2)nc1 [[L2Cu3(O3POPh)]4+] | 51500 | 51500 | 60200 nM and 49000 nM and 54900 nM and 41900 nM | 1.07 | 198 | 198 | 122 nM and 234 nM and 163 nM and 228 nM and 245 nM | 582.02 | 259.98 | 0.72 | 3.052 | 695 | 695 | 687 nM and 844 nM and 642 nM and 195 nM and 1590 nM and 213 nM | 165.81 | 74.07 | 3.25 | 0.674 | 0.328 | 82 | Selectivity indices relative to MCF10A, Ratio + anion:no anion (H460): 1.487; IC50 (HCT116 p53-/-; [4]): 82 nM; IC50 (HCT116 p53-/-; [5]): 80 nM and 86 nM; Selectivity index (ARPE19) (HCT116 p53-/-): 1405.37; Selectivity index (MCF10A) (HCT116 p53-/-): 627.77; Relative potency (+ anion to no anion), Ratio + anion:no anion (HCT116 p53-/-): 0.60; Selectivity indices relative to ARPE-19, Ratio + anion:no anion (HCT116 p53-/-): 3.658; Selectivity indices relative to MCF10A, Ratio + anion:no anion (HCT116 p53-/-): 1.782 |
